# From PubChem BioAssay AID192 (DTP/NCI, 2004)
# Values joined by “and” are separate entries in the source; they are usually repeats but may differ in a detail not shown here. Equal values may be shown once. Toxic doses and inconclusive results are not listed.
# Test system: BDF1 mice, B16 melanoma ip, median survival T/C
# Experiment: NCI In Vivo Anticancer Drug Screen. Data for tumor model B16 Melanoma (intraperitoneal) in B6D2F1 (BDF1) mice
# Details: endpoint: median survival time, higher = longer survival
# Summary of the method: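 Vehicle-treated animals serve as the reference (C); treated animals (T) are scored for survival or tumor size after tumor transplantation.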
# [1] = dose: 12.5 mg/kg/injection, schedule: Q01DX009 (ip), vehicle: saline with Tween-80
# [2] = dose: 25.0 mg/kg/injection, schedule: Q01DX009 (ip), vehicle: saline with Tween-80
# [3] = dose: 12.5 mg/kg/injection, schedule: Q01DX009 (ip), vehicle: Klucel (hydroxypropylcellulose) (HPC)
# [4] = dose: 25.0 mg/kg/injection, schedule: Q01DX009 (ip), vehicle: Klucel (hydroxypropylcellulose) (HPC)
# [5] = dose: 100.0 mg/kg/injection, schedule: Q01DX009 (ip), vehicle: Klucel (hydroxypropylcellulose) (HPC)
# [6] = dose: 200.0 mg/kg/injection, schedule: Q01DX009 (ip), vehicle: Klucel (hydroxypropylcellulose) (HPC)
# [7] = dose: 50.0 mg/kg/injection, schedule: Q01DX009 (ip), vehicle: saline with Tween-80
# [8] = dose: 100.0 mg/kg/injection, schedule: Q01DX009 (ip), vehicle: saline with Tween-80
# [9] = dose: 200.0 mg/kg/injection, schedule: Q01DX009 (ip), vehicle: saline with Tween-80
# [10] = dose: 400.0 mg/kg/injection, schedule: Q01DX009 (ip), vehicle: saline with Tween-80
# [11] = dose: 50.0 mg/kg/injection, schedule: Q01DX009 (ip), vehicle: Klucel (hydroxypropylcellulose) (HPC)
structure (smiles),measurement,setting,value
COc1cccc2c1C(=O)c1c(O)c3c(c(O)c1C2=O)C[C@@](O)(C(=O)CO)C[C@@H]3OC1CC(N)C(O)C(C)O1 (some centres not stated),T/C,"dose: 0.12 mg/kg/injection, schedule: Q01DX009 (ip), vehicle: saline",163 % of control
same,T/C,"dose: 0.13 mg/kg/injection, schedule: Q01DX009 (ip), vehicle: water",202 % of control
same,T/C,"dose: 0.25 mg/kg/injection, schedule: Q01DX009 (ip), vehicle: water",181 % of control and 202 % of control and 266 % of control
same,T/C,"dose: 0.37 mg/kg/injection, schedule: Q01DX009 (ip), vehicle: saline",412 % of control
same,T/C,"dose: 0.37 mg/kg/injection, schedule: Q03HX008 (ip), vehicle: saline",154 % of control and 270 % of control
same,T/C,"dose: 0.47 mg/kg/injection, schedule: Q01DX001 (ip), vehicle: water",175 % of control
same,T/C,"dose: 0.5 mg/kg/injection, schedule: Q01DX009 (ip), vehicle: water",222 % of control and 260 % of control and 274 % of control
same,T/C,"dose: 0.5 mg/kg/injection, schedule: Q03HX008 (ip), vehicle: saline",194 % of control
same,T/C,"dose: 0.75 mg/kg/injection, schedule: Q01DX001 (ip), vehicle: saline",162 % of control
same,T/C,"dose: 0.75 mg/kg/injection, schedule: Q01DX001 (ip), vehicle: water",154 % of control
same,T/C,"dose: 0.75 mg/kg/injection, schedule: Q01DX009 (ip), vehicle: saline",154 % of control and 412 % of control
same,T/C,"dose: 0.75 mg/kg/injection, schedule: Q03DX001 (ip), vehicle: saline",168 % of control
same,T/C,"dose: 0.75 mg/kg/injection, schedule: Q03HX008 (ip), vehicle: saline",164 % of control and 412 % of control
same,T/C,"dose: 0.75 mg/kg/injection, schedule: Q04DX003 (ip), vehicle: saline",210 % of control
same,T/C,"dose: 0.94 mg/kg/injection, schedule: Q01DX001 (ip), vehicle: water",194 % of control and 197 % of control
same,T/C,"dose: 1.0 mg/kg/injection, schedule: Q01DX009 (ip), vehicle: water",260 % of control and 274 % of control and 339 % of control
same,T/C,"dose: 1.0 mg/kg/injection, schedule: Q03HX008 (ip), vehicle: saline",169 % of control
same,T/C,"dose: 1.25 mg/kg/injection, schedule: Q01DX001 (ip), vehicle: saline",210 % of control
same,T/C,"dose: 1.4 mg/kg/injection, schedule: Q04DX003 (ip), vehicle: saline",102 % of control
same,T/C,"dose: 1.44 mg/kg/injection, schedule: Q04DX003 (ip), vehicle: water",158 % of control and 295 % of control
same,T/C,"dose: 1.5 mg/kg/injection, schedule: Q01DX001 (ip), vehicle: saline",100 % of control and 114 % of control
same,T/C,"dose: 1.5 mg/kg/injection, schedule: Q01DX009 (ip), vehicle: saline",164 % of control and 412 % of control
same,T/C,"dose: 1.5 mg/kg/injection, schedule: Q03DX001 (ip), vehicle: saline",412 % of control
same,T/C,"dose: 1.5 mg/kg/injection, schedule: Q03HX008 (ip), vehicle: saline",206 % of control
same,T/C,"dose: 1.5 mg/kg/injection, schedule: Q04DX003 (ip), vehicle: saline",152 % of control and 412 % of control
same,T/C,"dose: 1.88 mg/kg/injection, schedule: Q01DX001 (ip), vehicle: water",241 % of control and 308 % of control
same,T/C,"dose: 1.9 mg/kg/injection, schedule: Q01DX001 (ip), vehicle: water",165 % of control
same,T/C,"dose: 2.0 mg/kg/injection, schedule: Q01DX009 (ip), vehicle: water",219 % of control and 275 % of control
same,T/C,"dose: 2.0 mg/kg/injection, schedule: Q03HX008 (ip), vehicle: saline",152 % of control
same,T/C,"dose: 2.4 mg/kg/injection, schedule: Q04DX003 (ip), vehicle: saline",105 % of control
same,T/C,"dose: 2.4 mg/kg/injection, schedule: Q04DX003 (ip), vehicle: water",155 % of control and 233 % of control
same,T/C,"dose: 3.0 mg/kg/injection, schedule: Q03DX001 (ip), vehicle: saline",177 % of control
same,T/C,"dose: 3.0 mg/kg/injection, schedule: Q04DX003 (ip), vehicle: saline",162 % of control and 412 % of control
same,T/C,"dose: 3.75 mg/kg/injection, schedule: Q01DX001 (ip), vehicle: water",214 % of control and 308 % of control
same,T/C,"dose: 3.8 mg/kg/injection, schedule: Q01DX001 (ip), vehicle: water",111 % of control
same,T/C,"dose: 4.0 mg/kg/injection, schedule: Q04DX003 (ip), vehicle: water",184 % of control and 202 % of control
same,T/C,"dose: 5.9 mg/kg/injection, schedule: Q04DX003 (ip), vehicle: saline",428 % of control
same,T/C,"dose: 6.0 mg/kg/injection, schedule: Q01DX001 (ip), vehicle: saline",308 % of control
same,T/C,"dose: 6.0 mg/kg/injection, schedule: Q03DX001 (ip), vehicle: saline",264 % of control
same,T/C,"dose: 6.0 mg/kg/injection, schedule: Q04DX003 (ip), vehicle: saline",189 % of control
same,T/C,"dose: 6.67 mg/kg/injection, schedule: Q04DX003 (ip), vehicle: saline",118 % of control
same,T/C,"dose: 6.67 mg/kg/injection, schedule: Q04DX003 (ip), vehicle: water",198 % of control and 321 % of control
same,T/C,"dose: 8.0 mg/kg/injection, schedule: Q04DX003 (ip), vehicle: saline",165 % of control and 180 % of control
same,T/C,"dose: 9.0 mg/kg/injection, schedule: Q04DX003 (ip), vehicle: saline",103 % of control
same,T/C,"dose: 12.0 mg/kg/injection, schedule: Q03DX001 (ip), vehicle: saline",100 % of control
same,T/C,"dose: 13.3 mg/kg/injection, schedule: Q01DX001 (ip), vehicle: saline",150 % of control and 155 % of control
same,T/C,"dose: 32.0 mg/kg/injection, schedule: Q01DX001 (ip), vehicle: saline",40 % of control
same,T/C,"dose: 32.0 mg/kg/injection, schedule: Q01DX001 (ip), vehicle: water",116 % of control
same,T/C,"dose: 64.0 mg/kg/injection, schedule: Q01DX001 (ip), vehicle: saline",25 % of control
same,T/C,"dose: 128.0 mg/kg/injection, schedule: Q01DX001 (ip), vehicle: saline",20 % of control
same,T/C,"dose: 125.0 micrograms/kg/injection, schedule: Q01DX009 (ip), vehicle: other",178 % of control
same,T/C,"dose: 250.0 micrograms/kg/injection, schedule: Q01DX009 (ip), vehicle: other",246 % of control
same,T/C,"dose: 500.0 micrograms/kg/injection, schedule: Q01DX009 (ip), vehicle: other",379 % of control
same,T/C,"dose: 518.0 micrograms/kg/injection, schedule: Q01DX004 (ip), vehicle: other",112 % of control
same,T/C,"dose: 864.0 micrograms/kg/injection, schedule: Q01DX004 (ip), vehicle: other",122 % of control
same,T/C,"dose: 1000.0 micrograms/kg/injection, schedule: Q01DX009 (ip), vehicle: other",380 % of control
same,T/C,"dose: 2000.0 micrograms/kg/injection, schedule: Q01DX009 (ip), vehicle: other",382 % of control
same,T/C,"dose: 4000.0 micrograms/kg/injection, schedule: Q01DX004 (ip), vehicle: other",100 % of control and 112 % of control
ClCCN(CCCl)CCCN1c2ccccc2Sc2ccc(Cl)cc21,T/C,"dose: 3.12 mg/kg/injection, schedule: Q01DX009 (ip), vehicle: saline with Tween-80",120 % of control
same,T/C,[1],120 % of control
same,T/C,[2],117 % of control
CC1(C)NC(=O)C(/C=C/c2ccccc2)O1 (configuration not stated),T/C,"dose: 6.25 mg/kg/injection, schedule: Q01DX009 (ip), vehicle: Klucel (hydroxypropylcellulose) (HPC)",96 % of control
same,T/C,[3],109 % of control
same,T/C,[4],121 % of control
same,T/C,[5],112 % of control
same,T/C,[6],86 % of control
Nc1cccc2c1nc(NCCO)c1ccccc12,T/C,[7],94 % of control
same,T/C,[8],102 % of control
same,T/C,[9],94 % of control
same,T/C,[10],102 % of control
O=c1[nH]c(/C=C/c2ccc(Cl)cc2)nc(O)c1-c1ccc(Cl)cc1,T/C,"dose: 75.0 mg/kg/injection, schedule: Q04DX003 (ip), vehicle: Klucel (hydroxypropylcellulose) (HPC)",110 % of control
same,T/C,"dose: 150.0 mg/kg/injection, schedule: Q04DX003 (ip), vehicle: Klucel (hydroxypropylcellulose) (HPC)",100 % of control
same,T/C,"dose: 300.0 mg/kg/injection, schedule: Q04DX003 (ip), vehicle: Klucel (hydroxypropylcellulose) (HPC)",87 % of control
CCCCCCCCN(C)N=Nc1ccc(Cl)cc1C(=O)O,T/C,[7],103 % of control
same,T/C,[8],107 % of control
CSc1nc(=O)[nH]nc1SCc1ccccc1,T/C,[11],98 % of control
same,T/C,[5],105 % of control
same,T/C,[6],98 % of control
same,T/C,"dose: 400.0 mg/kg/injection, schedule: Q01DX009 (ip), vehicle: Klucel (hydroxypropylcellulose) (HPC)",110 % of control
CC(=O)Nc1ccc(NC(=O)c2ccc([As](O)O)cc2)cc1,T/C,[3],104 % of control
same,T/C,[4],105 % of control
same,T/C,[11],91 % of control
same,T/C,[5],105 % of control
C/C=C/C=C1/OC(C)=C(C(C)=O)C1=O,T/C,[1],102 % of control and 111 % of control
same,T/C,[2],102 % of control
same,T/C,[7],102 % of control and 110 % of control
same,T/C,[8],96 % of control and 109 % of control
same,T/C,[9],104 % of control
same,T/C,[10],98 % of control
C/C=C/c1ccc(OC(C)=O)c(OC)c1,T/C,[8],106 % of control
same,T/C,[9],97 % of control
same,T/C,[10],100 % of control
